These results are taken from patent publication US10034879B2, “Substituted benzaldehyde compounds and methods for their use in increasing tissue oxygenation” (Global Blood Therapeutics, Inc., priority 2011, dated 2018).

In one assay the target is T1, HbS (Homo sapiens, UniProt P68871+P69905, E7V).
T1 construct: Oxygen Equilibrium Curves (OEC) of whole blood before and after treatment; endogenous in cells; host or cells: whole blood (red blood cells) of homozygous sickle cell patients
The experiment in a line: Whole blood assay, oxygen equilibrium curves of whole blood from sickle cell patients. In kind it is cell-based. Particulars: hematocrit 20%, compound at 1000 μM. Here is the method:
Oxygen Equilibrium Curves (OEC) of whole blood before and after treatment with different concentrations of substituted benzaldehyde compounds were performed as follows using a HEMOX analyzer (TCS Scientific, New Hope, Pa.). Blood samples from homozygous sickle cell patients were obtained though the Hemoglobinopathy Center at Children's Hospital Oakland Research Institute (CHORI) with Institutional Review Board approval. The hematocrit was adjusted to 20% using autologous plasma and the blood samples were incubated for 1 hour at 37° C. in absence or presence of compounds. 100 μl of these samples were added to 5 mL of Hemox buffer (30 mM TES, 130 mM NaCl, 5 mM KCl, pH=7.4) at 37° C. and then transferred to the Hemox sample chamber. The samples were saturated with oxygen by flushing with compressed air for 10 minutes. The samples were then flushed with pure nitrogen and the respective absorbances of oxy- and deoxy-Hb are recorded as a function of the solution pO2. The oxygen equilibrium data were then fitted to the Hill Model to obtain values for p50. The deoxygenation curves for both whole blood alone (control) and whole blood in the presence of the compound were collected with the TCS software.
Table 5 below lists the delta p50% values where + indicates a delta p50% of between 0 and 29, ++ indicates a delta p50% of between 30 and 50, and +++ indicates a delta p50% of 50 or greater. The compounds in Table 2 were tested at 1000 μM.

Another assay deals with T2, HbS/A (Homo sapiens, UniProt P68871+P69905, E7V).
T2 construct: A mixture of HbS/A was purified from blood; from tissue; host or cells: blood of homozygous sickle cell patients
The experiment in a line: Relaxed-to-tense transition assay (R/T assay). It counts as biochemical. Particulars: 3 μM HbS/A. Here is the method:
A relaxed-to-tense transition assay (“R/T assay”) was used to determine the ability of substituted benzaldehyde compounds to maintain the high-oxygen affinity relaxed (R) state of hemoglobin under deoxygenated conditions. This ability can be expressed as a “delta R” value (i.e., the change in the time-period of the R state after hemoglobin is treated with a compound, as compared to the period without treatment with the compound). Delta R is the % R to remaining after the compounds treatment compared with no treatment (e.g. if R % without treatment is 8% while with treatment with a target compound is 48% R at 30 μM, then % R is 40% for that compound.
A mixture of HbS/A was purified from blood obtained from homozygous sickle cell patients though the Hemoglobinopathy Center at Children's Hospital Oakland Research Institute (CHORI) with Institutional Review Board approval. HbS/A (at a final concentration of 3 μM) was incubated for 1 hr at 37° C. in presence or absence of compounds in […] potassium phosphate buffer, pH=7.4 and 30 μM 2, 3 diphosphoglycerate (DPG) in 96 well plates in a final volume of 160 μl. Compounds were added at different concentrations (3 μM to 100 μM final concentrations). Plates were covered with a Mylar film. After incubation was completed the Mylar cover was removed and the plates were placed in a Spectrostar Nano plate reader previously heated at 37° C. Five minutes later, N2 (flow rate=20 L/min) was flowed through the spectrophotometer. Spectroscopic measurements (300 nm to 700 nm) were taken every 5 min for 2 hours. Data analysis was performed by using linear regression from the data retrieved for all wavelengths.
Table 4 below lists the delta R values where + indicates a delta R of between 0 and 30, ++ indicates a delta R of between 30 and 50, and +++ indicates a delta R of 50 or greater. Unless noted otherwise, the compounds in Table 2 were tested at 9 μM.

The next assay concerns the target T3, purified HBS (Homo sapiens, UniProt P68871+P69905, E7V).
T3 construct: HbS is purified by the CRO VIRUSYS, from blood obtained from homozygous sickle cell patients; tissue VIRUSYS (CRO that did the purification); host or cells: blood of homozygous sickle cell patients
Nature of the assay: HbS polymerization assay (delay time). In kind it is biochemical. Particulars: 50 μM purified HBS, 1.8 M potassium phosphate pH 7.4. The method, then: Polymerization assays are carried out in vitro using purified HBS exchanged into 1.8 M potassium phosphate buffer at pH 7.4. Using a slightly modified protocol (Antonini and Brunori, 1971), HbS is purified by the CRO VIRUSYS, from blood obtained from homozygous sickle cell patients through the Hemoglobinopathy Center at Children's Hospital Oakland Research Institute (CHORI) with Institutional Review Board approval. Compounds are prepared in 100% DMSO and a desired amount is added to 50 μM of purified HBS at a final DMSO concentration of 0.3%. Final potassium phosphate concentration is adjusted to 1.8 M using a combination of 2.5 M potassium phosphate stock solution and water at pH 7.4. The reaction mixture is incubated for an hour at 37° C. and then transferred into a 24-well plate for deoxygenation in a glove box containing 99.5% nitrogen and 0.5% oxygen. The 24-well plate is not covered and incubated at 4° C. on a plate cooler inside the glove box for one and a half hours. Fifty μL of the reaction mixture is transferred into a 96-well plate and the absorbance at 700 nm is measured every minute for one hour at 37° C. in a plate reader located inside the glove box. A plot of the absorbance against time is fitted using a Boltzman sigmoidal fit and the delay time (from zero to time at half Vmax) is measured. To compare and rank compounds, delay times are expressed as percent delay (% DT), which is defined as the difference in delay times for HBS/compound and HBS alone multiplied by 100 and divided by the delay time for HBS alone.
Compounds listed below have been tested in the polymerization assay. Activity ranges are defined by the number of dagger (†) symbols indicated. † denotes activity ≤40% but ≤80%; †† denotes activity >80% but ≤120%; ††† denotes activity >120% but ≤140%; †††† denotes activity >160%.

The subject of assay [1] is Transgenic mice producing human HbS. Particulars: extreme hypoxia (5% oxygen), vs non-treated mice; cited from earlier work.

Turning to `O=Cc1c(O)cccc1OCc1cccc(-c2nn[nH]n2)c1` [Compound 44, 2-((3-(2H-tetrazol-5-yl)benzyl)oxy)-6-hydroxybenzaldehyde], at HbS, the “delta p50%” value was “+ (+ indicates a delta p50% of between 0 and 29)”. On HbS/A (compound at 9 μM), the “delta R (%)” value is “+++ (+++ indicates a delta R of 50 or greater)”.
In the case of `O=Cc1ccccc1OCc1ccc(C(=O)O)cc1` [Compound 47, 4-((2-formylphenoxy)methyl)benzoic acid], the “% delta Delay” value on purified HBS is “†† (†† denotes activity >80% but ≤120%)”.
On to `O=Cc1c(O)cccc1OCc1ccc(-c2nn[nH]n2)cc1` [Compound 45, 2-((4-(2H-tetrazol-5-yl)benzyl)oxy)-6-hydroxybenzaldehyde], for which, on HbS, the “delta p50%” value was “+ (+ indicates a delta p50% of between 0 and 29)”. Also, the “% delta Delay” value on purified HBS was “†† (†† denotes activity >80% but ≤120%)”. For the same compound, at HbS/A (compound at 9 μM), the “delta R (%)” value is listed as “+++ (+++ indicates a delta R of 50 or greater)”.
For `O=Cc1c(O)cccc1OCc1ccc(C(=O)O)cc1` [Compound 42, 4-((2-formyl-3-hydroxyphenoxy)methyl)benzoic acid], on HbS, the “delta p50%” value is “+ (+ indicates a delta p50% of between 0 and 29)”. Also, the “% delta Delay” value on purified HBS was “†† (†† denotes activity >80% but ≤120%)”. Also, the “delta R (%)” value on HbS/A (compound at 30 μm) was “+++ (30 μm) (+++ indicates a delta R of 50 or greater)”.
For `O=Cc1ccc(CO)o1` [Compound 5HMF, 5-hydroxymethyl-2-furfuraldehyde], in assay [1], the “amounts of hypoxia-induced sickled red blood cells” value is listed as “reduced” and the survival times entry is on record as “significantly improved”.
